Measured values: patent US11691972B2, “Compounds for targeted degradation of BRD9” (C4 Therapeutics, Inc., priority 2020, dated 2023)

Biological target: T1, BRD9 (Homo sapiens, UniProt Q9H8M2)
T1 sequence (Q9H8M2 1-597): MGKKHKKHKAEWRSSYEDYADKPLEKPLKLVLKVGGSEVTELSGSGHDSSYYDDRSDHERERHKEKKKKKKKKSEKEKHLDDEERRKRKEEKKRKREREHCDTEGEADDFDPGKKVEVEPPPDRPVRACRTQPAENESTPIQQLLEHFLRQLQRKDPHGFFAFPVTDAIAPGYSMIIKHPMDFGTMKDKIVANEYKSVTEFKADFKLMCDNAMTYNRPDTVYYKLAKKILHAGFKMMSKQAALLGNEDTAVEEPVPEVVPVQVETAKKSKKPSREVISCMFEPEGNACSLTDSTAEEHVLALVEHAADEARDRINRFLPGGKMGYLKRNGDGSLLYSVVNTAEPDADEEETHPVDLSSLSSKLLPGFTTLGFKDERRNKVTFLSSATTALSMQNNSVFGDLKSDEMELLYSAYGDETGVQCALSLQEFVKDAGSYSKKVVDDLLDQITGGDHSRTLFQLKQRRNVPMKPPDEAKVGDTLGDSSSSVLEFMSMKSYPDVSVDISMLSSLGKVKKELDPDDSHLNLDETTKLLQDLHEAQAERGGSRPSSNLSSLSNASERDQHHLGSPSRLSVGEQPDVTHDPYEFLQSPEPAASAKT
Assay: HiBiT BRD9 degradation assay in 293T.166 (BRD9-HiBiT) cells
Format: cell-based
Set-up: endogenously expressing BRD9 with HiBiT fusion tag via CRISPR; host or cells: 293T.166 (BRD9-HiBiT), also expressing LgBiT ectopically
Conditions: Table 1; 293T.166 cells, 2.0 hours; class symbols; read-out: HiBiT-Degradation 293T.166 BRD9 2.0 hours (DC50)
Method in brief: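 Luminescence from the Nano-Glo HiBiT lytic reagent quantified BRD9 loss after compounds (top 10 μM, half-log, 11 points, duplicates) were incubated 2 h at 37° C. with 10,000 293T.166 BRD9-HiBiT/LgBiT cells per well, with controls lacking compound or lacking reagent.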

| Structure (SMILES) | DC50 [nM] |
| --- | --- |
| COc1cc(-c2cn(C)c(=O)c3[nH]ncc23)cc(OC)c1CN1CCn2c(CN3CCC(c4ccc(NC5CCC(=O)NC5=O)cc4)CC3)ccc2C1 (stereo not shown) [Compound 102] | < 100 |
| Cn1cc(-c2ccc(CN3CCN(C(=O)CN4CCC(c5ccc(NC6CCC(=O)NC6=O)cc5)CC4)CC3)c(OC(F)(F)F)c2)c2ccc(F)cc2c1=O (stereo not shown) [Compound 36] | < 100 |
| COc1cc(-c2cn(C)c(=O)c3cnccc23)cc(OC)c1CN1CCc2c(CN3CCC(c4ccc(NC5CCC(=O)NC5=O)cc4)CC3)cccc2C1 (stereo not shown) [Compound 96] | < 100 |
| COc1cc(-c2cn(C)c(=O)c3[nH]ncc23)cc(OC)c1CN1CCN(C(=O)CN2CCC(c3ccc(C4CCC(=O)NC4=O)cc3)CC2)CC1 (stereo not shown) [Compound 16] | < 100 |
| COc1cc(-c2cn(C)c(=O)c3[nH]ncc23)cc(F)c1CN1CCC(C2CCN(c3ccc(NC4CCC(=O)NC4=O)cc3C(F)(F)F)CC2)CC1 (stereo not shown) [Compound 84] | < 100 |
| COc1cc(-c2cn(C)c(=O)c3cnccc23)cc(F)c1C(=O)N1CCC(N(C)C(=O)N2CCC(c3ccc(NC4CCC(=O)NC4=O)cc3)CC2)CC1 (stereo not shown) [Compound 132] | < 100 |
| COc1cc(-c2cn(C)c(=O)c3ccccc23)cc(OC)c1CN1CCc2c(CN3CCC(c4ccc(NC5CCC(=O)NC5=O)cc4)CC3)cccc2C1 (stereo not shown) [Compound 97] | < 100 |
| COc1cc(-c2cn(C)c(=O)c3[nH]ncc23)cc(OC)c1CN1CCC(OC(=O)N2CCC(c3ccc(NC4CCC(=O)NC4=O)cc3)CC2)CC1 (stereo not shown) [Compound 94, [1-[[2,6-dimethoxy-4-(6-methyl-7-oxo-1H-pyrazolo[3,4-c]pyridin-4-yl)phenyl]methyl]-4-piperidyl] 4-[4-[(2,6-dioxo-3-piperidyl)amino]phenyl]piperidine-1-carboxylate] | < 100 |
| COc1cc(-c2cn(C)c(=O)c3[nH]ncc23)cc(OC)c1CN1CCN(C(=O)CN2CCC(c3ccc(NC4CCC(=O)NC4=O)cc3)C(F)(F)C2)CC1 (stereo not shown) [Compound 8] | < 100 |
| COc1cc(-c2cn(C)c(=O)c3[nH]ncc23)cc(OC)c1CN1C[C@H]2CC(C(=O)N3CCC(c4ccc(NC5CCC(=O)NC5=O)cc4)CC3)C[C@H]2C1 (stereo partly drawn) [Compound 110, 3-[4-[1-[(3aR,6aS)-2-[[2,6-dimethoxy-4-(6-methyl-7-oxo-1H-pyrazolo[3,4-c]pyridin-4-yl)phenyl]methyl]-3,3a,4,5,6,6a-hexahydro-1H-cyclopenta[c]pyrrole-5-carbonyl]-4-piperidyl]anilino]piperidine-2,6-dione] | < 100 |
| COc1cc(-c2cn(C)c(=O)c(C)c2C)cc(OC)c1CN1CCC(N2CCN(c3ccc(NC4CCC(=O)NC4=O)cc3F)CC2)C(F)(F)C1 (single isomer, unassigned) [Compound 173, 3-[4-[4-[1-[[2,6-dimethoxy-4-(1,4,5-trimethyl-6-oxo-3-pyridyl)phenyl]methyl]-3,3-difluoro-4-piperidyl]piperazin-1-yl]-3-fluoro-anilino]piperidine-2,6-dione] | < 100 |
| COc1cc(-c2cn(C)c(=O)c3cnccc23)cc(OC)c1CN1CCN(C(=O)CC2CCN(c3ccc(NC4CCC(=O)NC4=O)cc3C(F)(F)F)CC2)CC1 (single isomer, unassigned) [Compound 55] | < 100 |
| COc1cc(-c2cn(C)c(=O)c3[nH]ncc23)cc(OC)c1CN1CCC(NC(=O)CN2CCC(c3ccc(NC4CCC(=O)NC4=O)cc3)CC2)CC1 (stereo not shown) [Compound 6] | < 100 |
| COc1cc(-c2cn(C)c(=O)c(C)c2C)cc(OC)c1CN1CCN(C(=O)CC2CCN(c3ccc(NC4CCC(=O)NC4=O)cc3C(F)(F)F)CC2)CC1 (stereo not shown) [Compound 61] | < 100 |
| COc1cc(-c2cn(C)c(=O)c3cnccc23)cc(Cl)c1CN1CCC(F)(CCC2CCN(c3ccc(NC4CCC(=O)NC4=O)cc3F)CC2)CC1 (stereo not shown) [Compound 152] | < 100 |
| COc1cc(-c2cn(C)c(=O)c(C)c2C)cc(F)c1CN1CCC(C2CCN(c3ccc(NC4CCC(=O)NC4=O)cc3C(F)(F)F)CC2)CC1 (stereo not shown) [Compound 86] | < 100 |
| COc1cc(-c2cn(C)c(=O)c3cnccc23)cc(Cl)c1C(=O)N1CCC(N(C)C(=O)N2CCC(c3ccc(NC4CCC(=O)NC4=O)cc3F)CC2)CC1 (stereo not shown) [Compound 142] | < 100 |
| COc1cc(-c2cn(C)c(=O)c3[nH]ncc23)cc(OC)c1CC1CCN(C(=O)CC2CCN(c3ccc(NC4CCC(=O)NC4=O)cc3)CC2)CC1 (stereo not shown) [Compound 159] | < 100 |
| COc1cc(-c2cn(C)c(=O)c3[nH]ncc23)cc(OC)c1CN1CCC(C2CCN(c3ccc(NC4CCC(=O)NC4=O)cc3)CC2)CC1 (stereo not shown) [Compound 70, 3-[4-[4-[1-[[2,6-dimethoxy-4-(6-methyl-7-oxo-1H-pyrazolo[3,4-c]pyridin-4-yl)phenyl]methyl]-4-piperidyl]-1-piperidyl]anilino]piperidine-2,6-dione] | < 100 |
| COc1cc(-c2cn(C)c(=O)c(C)c2C)cc(OC)c1CN1C2CCC1CN(C(=O)CC1CCN(c3ccc(NC4CCC(=O)NC4=O)cc3F)CC1)C2 (stereo not shown) [Compound 65] | < 100 |

The remaining lines, values ahead:

| DC50 [nM] | Structure (SMILES) |
| --- | --- |
| < 100 | Cc1c(-c2ccc(CN3CCC(F)(C4CCN(c5ccc(NC6CCC(=O)NC6=O)cc5F)CC4)CC3)c(OC(F)(F)F)c2)cn(C)c(=O)c1C (stereo not shown) [Compound 244] |
| < 100 | COc1cc(-c2cn(C)c(=O)c3[nH]ncc23)cc(OC)c1CN1CCc2cc(N3CCC(c4ccc(NC5CCC(=O)NC5=O)cc4)CC3)ccc2C1 (stereo not shown) [Compound 206, 3-[4-[1-[2-[[2,6-dimethoxy-4-(6-methyl-7-oxo-1H-pyrazolo[3,4-c]pyridin-4-yl)phenyl]methyl]-3,4-dihydro-1H-isoquinolin-6-yl]-4-piperidyl]anilino]piperidine-2,6-dione] |
| < 100 | COc1cc(-c2cn(C)c(=O)c3cnccc23)cc(Cl)c1C(=O)N1CCC(CC(=O)N2CCC(c3ccc(NC4CCC(=O)NC4=O)cc3)CC2)CC1 (stereo not shown) [Compound 232, 3-[4-[1-[2-[1-[2-chloro-6-methoxy-4-(2-methyl-1-oxo-2,7-naphthyridin-4-yl)benzoyl]-4-piperidyl]acetyl]-4-piperidyl]anilino]piperidine-2,6-dione] |
| < 100 | COc1cc(-c2cn(C)c(=O)c3[nH]ncc23)cc(Cl)c1C(=O)N1CCC(C2CCN(c3ccc(NC4CCC(=O)NC4=O)cn3)CC2)CC1 (stereo not shown) [Compound 220] |
| < 100 | COc1cc(-c2cn(C)c(=O)c3cnccc23)cc(Cl)c1C(=O)N1CCc2c(CN3CCC(c4ccc(NC5CCC(=O)NC5=O)cc4)C(F)(F)C3)cccc2C1 (stereo not shown) [Compound 236] |
| < 100 | COc1cc(-c2cn(C)c(=O)c3[nH]ncc23)cc(Cl)c1CN1CCC(N2CCN(c3ccc(NC4CCC(=O)NC4=O)cc3F)CC2)C(F)(F)C1 (stereo not shown) [Compound 183] |

Same assay, conditions: Table 2; 293T.166 cells, 2.0 hours; class symbols; read-out: HiBiT-Degradation 293T.166 BRD9 2.0 hours (DC50)

| DC50 [nM] | Structure (SMILES) |
| --- | --- |
| < 100 | C/C=C/Cn1cc(-c2cc(Cl)c(CN3CCC(N4CCN(c5ccc(NC6CCC(=O)NC6=O)cc5F)CC4)C(F)(F)C3)c(OC)c2)c2ccncc2c1=O (stereo not shown) [Compound 266] |
| < 100 | COc1cc(-c2cn(C)c(=O)c(C)c2C)cc(Cl)c1CN1CCC(C2CCN(c3ccc(NC4CCC(=O)NC4=O)cc3F)CC2)C(F)(F)C1 (single isomer, unassigned) [Compound 259] |
